From the supplement of paper PMC10307832

How the values were obtained:
Experiment in all cases: relative viability (nuclei count vs DMSO), 5 days (fraction); higher = more cells survive
AZD8055 + OSI-027 = compound: COc1ccc(-c2ccc3c(N4CCOC[C@@H]4C)nc(N4CCOC[C@@H]4C)nc3n2)cc1CO [AZD8055] + COc1cccc2cc(-c3nc([C@H]4CC[C@H](C(=O)O)CC4)n4ncnc(N)c34)[nH]c12 [OSI-027] (partner 0.5 µM)
Method in brief: (§1)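 Relative viability is defined as nuclei in treated wells over nuclei in vehicle wells. Duplicate plates were run and medians reported. Lung cancer cell lines in 1536-well plates were dosed by pin tool one day after seeding, with one drug or with a fixed anchor-drug dose plus five library-drug doses (not always all listed) in √10 steps, and nuclei were counted after 5 days.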

AZD8055 + AZD7762 = compound: COc1ccc(-c2ccc3c(N4CCOC[C@@H]4C)nc(N4CCOC[C@@H]4C)nc3n2)cc1CO [AZD8055] + NC(=O)Nc1cc(-c2cccc(F)c2)sc1C(=O)N[C@H]1CCCNC1 [AZD7762] (partner 0.2 µM)
Method in brief: as §1

AZD8055 + Foretinib = compound: COc1ccc(-c2ccc3c(N4CCOC[C@@H]4C)nc(N4CCOC[C@@H]4C)nc3n2)cc1CO [AZD8055] + COc1cc2c(Oc3ccc(NC(=O)C4(C(=O)Nc5ccc(F)cc5)CC4)cc3F)ccnc2cc1OCCCN1CCOCC1 [Foretinib] (partner 0.25 µM)
Method in brief: as §1

AZD8055 + Pemetrexed = compound: COc1ccc(-c2ccc3c(N4CCOC[C@@H]4C)nc(N4CCOC[C@@H]4C)nc3n2)cc1CO [AZD8055] + Nc1nc2[nH]cc(CCc3ccc(C(=O)N[C@@H](CCC(=O)O)C(=O)O)cc3)c2c(=O)[nH]1 [Pemetrexed] (partner 0.2 µM)
Method in brief: as §1

| Cell Line | relative viability (AZD8055 + OSI-027; first compound 0.01 µM) | relative viability (AZD8055 + OSI-027; first compound 0.03162 µM) | relative viability (AZD8055 + OSI-027; first compound 0.1 µM) | relative viability (AZD8055 + OSI-027; first compound 0.3162 µM) | relative viability (AZD8055 + OSI-027; first compound 1 µM) | relative viability (AZD8055 + AZD7762; first compound 0.01 µM) | relative viability (AZD8055 + AZD7762; first compound 0.03162 µM) | relative viability (AZD8055 + AZD7762; first compound 0.1 µM) | relative viability (AZD8055 + AZD7762; first compound 0.3162 µM) | relative viability (AZD8055 + AZD7762; first compound 1 µM) | relative viability (AZD8055 + Foretinib; first compound 0.01 µM) | relative viability (AZD8055 + Foretinib; first compound 0.03162 µM) | relative viability (AZD8055 + Foretinib; first compound 0.1 µM) | relative viability (AZD8055 + Foretinib; first compound 0.3162 µM) | relative viability (AZD8055 + Foretinib; first compound 1 µM) | relative viability (AZD8055 + Pemetrexed; first compound 0.01 µM) | relative viability (AZD8055 + Pemetrexed; first compound 0.03162 µM) | relative viability (AZD8055 + Pemetrexed; first compound 0.1 µM) | relative viability (AZD8055 + Pemetrexed; first compound 0.3162 µM) | relative viability (AZD8055 + Pemetrexed; first compound 1 µM) |
| --- | --- | --- | --- | --- | --- | --- | --- | --- | --- | --- | --- | --- | --- | --- | --- | --- | --- | --- | --- | --- |
| NCI-H441 | 0.676 | 0.647 | 0.476 | 0.408 | 0.339 | 1.24 | 1.14 | 0.837 | 0.562 | 0.382 | 0.925 | 0.94 | 0.68 | 0.349 | 0.37 | 0.273 | 0.247 | 0.232 | 0.234 | 0.205 |
| NCI-H650 | 0.528 | 0.492 | 0.602 | 0.368 | 0.344 | 0.84 | 0.875 | 1.02 | 0.667 | 0.323 | 1.12 | 0.995 | 0.773 | 0.541 | 0.368 | 0.981 | 0.691 | 0.843 | 0.371 | 0.299 |
| NCI-H1355 | 0.393 | 0.414 | 0.372 | 0.314 | 0.273 | 0.856 | 0.663 | 0.594 | 0.288 | 0.248 | 0.865 | 0.77 | 0.712 | 0.332 | 0.278 | 1.06 | 0.91 | 0.772 | 0.316 | 0.235 |
| NCI-H2347 | 0.408 | 0.387 | 0.356 | 0.346 | 0.248 | 0.781 | 0.614 | 0.633 | 0.449 | 0.281 | 0.804 | 0.949 | 0.454 | 0.403 | 0.386 | 0.456 | 0.449 | 0.442 | 0.414 | 0.435 |
| LCLC-97TM1 | 0.502 | 0.472 | 0.577 | 0.422 | 0.415 | 0.23 | 0.176 | 0.173 | 0.145 | 0.11 | 0.963 | 0.74 | 0.671 | 0.417 | 0.529 | 0.18 | 0.158 | 0.168 | 0.168 | 0.132 |
| EMC-BAC-2 | 0.364 | 0.387 | 0.358 | 0.291 | 0.284 | 1.03 | 0.912 | 0.956 | 0.517 | 0.377 | 0.965 | 0.846 | 0.809 | 0.393 | 0.347 | 0.501 | 0.465 | 0.474 | 0.396 | 0.316 |
| NCI-H1975 | 0.677 | 0.56 | 0.375 | 0.237 | 0.235 | 0.732 | 0.636 | 0.466 | 0.328 | 0.348 | 0.86 | 0.73 | 0.459 | 0.284 | 0.24 | 0.311 | 0.301 | 0.264 | 0.206 | 0.167 |
| BEN | 0.308 | 0.374 | 0.322 | 0.291 | 0.251 | 0.684 | 0.408 | 0.41 | 0.403 | 0.357 | 0.533 | 0.463 | 0.389 | 0.284 | 0.284 | 0.815 | 0.589 | 0.514 | 0.421 | 0.449 |
| NCI-H23 | 0.673 | 0.555 | 0.626 | 0.426 | 0.323 | 0.202 | 0.245 | 0.233 | 0.161 | 0.14 | 1.02 | 0.841 | 0.584 | 0.451 | 0.347 | 0.503 | 0.635 | 0.542 | 0.326 | 0.354 |
| CAL-12T | 0.717 | 0.738 | 0.614 | 0.208 | 0.26 | 0.695 | 0.8 | 0.733 | 0.421 | 0.339 | 1.25 | 1.22 | 1.01 | 0.414 | 0.279 | 1.02 | 0.891 | 0.918 | 0.424 | 0.296 |
| EPLC-272H | 0.252 | 0.255 | 0.28 | 0.228 | 0.243 | 0.178 | 0.0952 | 0.243 | 0.109 | 0.127 | 0.537 | 0.418 | 0.378 | 0.274 | 0.21 | 0.361 | 0.363 | 0.369 | 0.321 | 0.331 |
| LCLC-103H | 0.444 | 0.437 | 0.44 | 0.356 | 0.32 | 0.739 | 0.608 | 0.592 | 0.343 | 0.371 | 0.72 | 0.616 | 0.583 | 0.359 | 0.281 | 0.499 | 0.438 | 0.54 | 0.49 | 0.392 |
| NCI-H2405 | 0.664 | 0.697 | 0.56 | 0.43 | 0.385 | 0.832 | 0.779 | 0.621 | 0.324 | 0.313 | 1.03 | 0.977 | 0.816 | 0.432 | 0.381 | 1.06 | 0.987 | 0.803 | 0.34 | 0.342 |
| HCC-15 | 0.805 | 0.732 | 0.658 | 0.38 | 0.303 | 1.26 | 1.18 | 1.21 | 0.885 | 0.559 | 1.05 | 0.969 | 0.755 | 0.537 | 0.445 | 0.241 | 0.236 | 0.209 | 0.238 | 0.241 |
| PC-3 [JPC-3] | 0.84 | 0.742 | 0.756 | 0.768 | 0.566 | 0.772 | 0.681 | 0.728 | 0.37 | 0.399 | 1.12 | 1.12 | 1.1 | 0.774 | 0.492 | 1.17 | 1.09 | 0.877 | 0.622 | 0.454 |
| NCI-H1944 | 0.418 | 0.454 | 0.378 | 0.297 | 0.24 | 0.455 | 0.453 | 0.393 | 0.268 | 0.202 | 1.04 | 0.793 | 0.648 | 0.409 | 0.321 | 0.57 | 0.568 | 0.454 | 0.286 | 0.294 |
